Laboratory results as given in ChEMBL document CHEMBL3045519, “Selective Herbicidal Activity of 3, 5-Dichloropyridyloxy-phenoxypropionamidoxyacetic Acid Derivatives between Wheat and Wild Oat” (J Pestic Sci, 1996).
Calls of active or inactive are those of the source.

Key:
[1] = test system: Triticum aestivum; assay: Phytotoxicity against Triticum aestivum (wheat) under greenhouse conditions at 2.5 g/a at 1.5-leaf stage measured after 3 weeks by pot test; format: organism-based; conditions: in vivo, 504 h
[2] = test system: Triticum aestivum; assay: Phytotoxicity against Triticum aestivum (wheat) under greenhouse conditions at 1.3 g/a at 1.5-leaf stage measured after 3 weeks by pot test; format: organism-based; conditions: in vivo, 504 h
[3] = test system: Triticum aestivum; assay: Phytotoxicity against Triticum aestivum (wheat) under greenhouse conditions at 0.6 g/a at 1.5-leaf stage measured after 3 weeks by pot test; format: organism-based; conditions: in vivo, 504 h
[4] = test system: Triticum aestivum; assay: Phytotoxicity against Triticum aestivum (wheat) under greenhouse conditions at 0.3 g/a at 1.5-leaf stage measured after 3 weeks by pot test; format: organism-based; conditions: in vivo, 504 h
[5] = test system: Avena fatua; assay: Post-emergence herbicidal activity against Avena fatua under greenhouse conditions at 0.3 g/a at 1.5-leaf stage measured after 3 weeks by pot test; format: functional, organism-based
[6] = test system: Avena fatua; assay: Post-emergence herbicidal activity against Avena fatua under greenhouse conditions at 2.5 g/a at 1.5-leaf stage measured after 3 weeks by pot test; format: functional, organism-based
[7] = test system: Avena fatua; assay: Post-emergence herbicidal activity against Avena fatua under greenhouse conditions at 1.3 g/a at 1.5-leaf stage measured after 3 weeks by pot test; format: functional, organism-based
[8] = test system: Avena fatua; assay: Post-emergence herbicidal activity against Avena fatua under greenhouse conditions at 0.6 g/a at 1.5-leaf stage measured after 3 weeks by pot test; format: functional, organism-based

Measured: Activity

CC(Oc1ccc(Oc2cnc3cc(Cl)ccc3n2)cc1)C(=O)O (centres undefined) [QUIZALOFOP]
Toxic: [1] | [2] | [3] | [4]
active: all other assays above

CCCNC(=O)CNC(=O)C(C)Oc1ccc(Oc2ncc(Cl)cc2Cl)cc1 (centres undefined)
inactive: [5]
active: [6] | [7] | [8]
Toxic: [1]
Non-toxic: all other assays above

CCCOC(=O)CNC(=O)C(C)Oc1ccc(Oc2ncc(Cl)cc2Cl)cc1 (centres undefined)
active: [5] | [6] | [7] | [8]
Non-toxic: all other assays above

O=C(O)CONC(=O)COc1ccc(Oc2ncc(Cl)cc2Cl)cc1
inactive: [5] | [6] | [7] | [8]
Non-toxic: all other assays above

CC(Oc1ccc(Oc2cnc3cc(Cl)ccc3n2)cc1)C(=O)NOCC(=O)O (centres undefined)
active: [5] | [6] | [7] | [8]
Toxic: all other assays above

CC(Oc1ccc(Oc2ccc(C(F)(F)F)cn2)cc1)C(=O)NOCC(=O)O (centres undefined)
inactive: [5]
active: [6] | [7] | [8]
Toxic: all other assays above

CC(Oc1ccc(Oc2ncc(Cl)cc2Cl)cc1)C(=O)NOCC(=O)O (centres undefined)
inactive: [7]
active: [5] | [6] | [8]
Non-toxic: all other assays above

CC(Oc1ccc(Oc2ncc(Cl)cc2Cl)cc1)C(=O)NCC(N)=O (centres undefined)
Non-toxic: [2] | [3] | [4]
Toxic: [1]
active: all other assays above

CC(Oc1ccc(Oc2ncc(C(F)(F)F)cc2Cl)cc1)C(=O)O (centres undefined) [HALOXYFOP]
Toxic: [1] | [2] | [3] | [4]
active: all other assays above

CC(Oc1ccc(Oc2ncc(C(F)(F)F)cc2Cl)cc1)C(=O)NOCC(=O)O (centres undefined)
active: [5] | [6] | [7] | [8]
Toxic: all other assays above

CCCCOC(=O)CNC(=O)C(C)Oc1ccc(Oc2ncc(Cl)cc2Cl)cc1 (centres undefined)
active: [5] | [6] | [7] | [8]
Non-toxic: all other assays above

CC(Oc1ccc(Oc2ncc(Cl)cc2Cl)cc1)C(=O)O (centres undefined) [PYRIPHENOP]
Toxic: [1] | [2] | [3]
Non-toxic: [4]
active: all other assays above

CC(Oc1ccc(Oc2ncc(Cl)cc2Cl)cc1)C(=O)NCCC(=O)O (centres undefined)
inactive: [5] | [8]
active: [6] | [7]
Non-toxic: all other assays above

COC(=O)CNC(=O)C(C)Oc1ccc(Oc2ncc(Cl)cc2Cl)cc1 (centres undefined)
active: [5] | [6] | [7] | [8]
Non-toxic: all other assays above

CNC(=O)CNC(=O)C(C)Oc1ccc(Oc2ncc(Cl)cc2Cl)cc1 (centres undefined)
Non-toxic: [1] | [2] | [3] | [4]
active: all other assays above

CC(Oc1ccc(Oc2ccc(C(F)(F)F)cn2)cc1)C(=O)O (centres undefined) [FLUAZIFOP]
active: [5] | [6] | [7] | [8]
Toxic: all other assays above

CCOC(=O)C(C)Oc1ccc(Oc2ncc(Cl)cc2Cl)cc1 (centres undefined)
active: [5] | [6] | [7] | [8]
Toxic: all other assays above

CC(Oc1ccc(Oc2ncc(Cl)cc2Cl)cc1)C(=O)NN (centres undefined)
Non-toxic: [1] | [2] | [3] | [4]
inactive: all other assays above

CC(Oc1ccc(Oc2ncc(Cl)cc2Cl)cc1)C(N)=O (centres undefined)
inactive: [5]
active: [6] | [7] | [8]
Non-toxic: all other assays above

CONC(=O)C(C)Oc1ccc(Oc2ncc(Cl)cc2Cl)cc1 (centres undefined)
Toxic: [1] | [2] | [3]
Non-toxic: [4]
active: all other assays above

COC(=O)C(C)Oc1ccc(Oc2ncc(Cl)cc2Cl)cc1 (centres undefined)
Toxic: [1] | [2] | [3] | [4]
active: all other assays above

CNC(=O)C(C)Oc1ccc(Oc2ncc(Cl)cc2Cl)cc1 (centres undefined)
Non-toxic: [1] | [2] | [3] | [4]
inactive: all other assays above

CC(Oc1ccc(Oc2ncc(Cl)cc2Cl)cc1)C(=O)NO (centres undefined)
active: [6] | [7] | [8]
inactive: [5]
Non-toxic: all other assays above
